Assay: Solubility behavior of solid phenothiazine in acrylic acid (method 1b, NIR probe)
Details: room temperature
Protocol: Method for determining the solubility behavior of solid phenothiazine of different forms and particle size distributions
Thereafter, at time intervals of from 1 to 5 mm, either a.) a sample of the dispersion was taken and filtered and the phenothiazine content was determined by UV spectroscopy or b.) the phenothiazine content was determined directly by means of an NIR probe which dipped into the dispersion of phenothiazine in acrylic acid (NIRVIS universal spectrometer from Buchi having a transmission probe with 1.5 mm slit width. In order to prevent disturbances by solid particles in the measuring slit, this was closed by means of a metal screen having a mesh size of 0.18 mm).
For this purpose, in each case 1.33 g of the respective sample were added to 66 g of acrylic acid and measurements were carried out at intervals of one minute (Graph. 1).

SMILES: c1ccc2c(c1)Nc1ccccc1S2 [phenothiazine, 2,3,5,6-dibenzo-1,4-triazine]
- maximum solubility of phenothiazine in acrylic acid: about 2.8 % (m/m)
